Results reported in patent US20070197957A1, “Implantable sensors, implantable pumps and anti-scarring drug combinations” (priority 2005, published 2007).
“Also recorded” adds a separate entry of the source.

How the values were obtained:
[1] = in vivo; cited from earlier work
[2] = water; cited from earlier work
[3] = 200 mg/day orally; cited from earlier work
[4] = system: mast cells and eosinophil
[5] = system: carrageenan-induced paw edema; test: Rat carrageenan-induced paw edema model, paw swelling; type: in vivo; details: amoxapine alone at 2.26 mg/kg
Description: A dose-range finding study was performed to determine the anti-inflammatory activity of various ratios of methyl prednisolone acetate and amoxapine in a rat carrageenan-induced paw edema model. […] The molar ratio of methyl prednisolone acetate to amoxapine ranged from 1:1 to 1:300, using total doses of methyl prednisolone acetate of 0.01, 0.03 or 0.1 mg/kg.
The test agent (a combination of methyl prednisolone acetate and amoxapine), vehicle control, or reference agents (methyl prednisolone acetate, amoxapine, or Depo-Medrol®) were administered in the left hind foot pad of rats. After 60 minutes, paw edema was induced by injection of 100 μl of 1% carrageenan in the same foot pad. The paw volume was measured with a water displacement plethysmometer immediately prior to test agent injection (T-1h), at the time of carrageenan injection (T0h), and at T6h. Animals were euthanized by carbon dioxide inhalation. Paw tissue samples were collected and flash frozen in liquid nitrogen. Samples were assayed for TNF-α by enzyme-linked immunoassay (ELISA).

NFkB and AP1 = NFkB and AP1 activation; type: cell-based
TNF-α = test: acute in vivo model of inflammation (LPS-induced TNF-α production); details: amoxapine alone or reduced dose prednisolone alone
[6] = chronic in vivo arthritis model (adjuvant model), joint swelling; details: amoxapine alone or reduced dose prednisolone alone
glucocorticoid receptor = molecular target: T1, glucocorticoid receptor (Homo sapiens, UniProt P04150); test: glucocorticoid receptor trafficking (mechanism study); type: cell-based
T1 construct: host or cells: T cells are named only for the GRE reporter experiment in the same sentence
T1 sequence (P04150 whole entry, species assumed): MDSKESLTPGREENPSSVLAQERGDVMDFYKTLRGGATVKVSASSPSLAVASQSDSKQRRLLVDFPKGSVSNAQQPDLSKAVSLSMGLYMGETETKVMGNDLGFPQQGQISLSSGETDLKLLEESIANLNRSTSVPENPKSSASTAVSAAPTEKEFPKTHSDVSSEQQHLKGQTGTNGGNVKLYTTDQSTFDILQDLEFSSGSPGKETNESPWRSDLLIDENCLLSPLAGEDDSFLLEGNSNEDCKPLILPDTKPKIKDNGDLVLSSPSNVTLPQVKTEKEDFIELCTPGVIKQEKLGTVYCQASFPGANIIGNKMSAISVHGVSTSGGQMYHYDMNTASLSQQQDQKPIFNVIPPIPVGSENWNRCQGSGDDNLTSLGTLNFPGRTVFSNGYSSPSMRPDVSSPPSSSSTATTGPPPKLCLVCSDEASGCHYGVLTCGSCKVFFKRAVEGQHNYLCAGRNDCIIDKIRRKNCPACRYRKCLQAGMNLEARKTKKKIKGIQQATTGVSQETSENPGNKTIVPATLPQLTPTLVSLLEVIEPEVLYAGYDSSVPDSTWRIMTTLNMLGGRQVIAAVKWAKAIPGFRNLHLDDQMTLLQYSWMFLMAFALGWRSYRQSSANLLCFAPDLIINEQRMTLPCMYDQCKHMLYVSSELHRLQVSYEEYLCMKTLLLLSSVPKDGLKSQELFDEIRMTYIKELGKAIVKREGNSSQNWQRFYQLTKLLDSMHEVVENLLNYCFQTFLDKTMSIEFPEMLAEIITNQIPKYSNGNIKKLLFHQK

NFAT = NFAT activation, translocation and transactivation; type: cell-based
GRE reporter plasmid = test: transactivation of a transfected GRE reporter plasmid in T cells; type: cell-based
ERK = ERK activation; type: cell-based
p38 and JNK = p38 and JNK activation; type: cell-based
[7] = system: Chick Chorioallantoic Membrane (CAM) vasculature; test: Chick chorioallantoic membrane (CAM) angiogenesis assay; type: in vivo; details: for Inhibition/n: 48 hours exposure
Description: Fertilized, domestic chick embryos were incubated for 3 days prior to shell-less culturing. In this procedure, the egg contents were emptied by removing the shell located around the air space. The interior shell membrane was then severed and the opposite end of the shell was perforated to allow the contents of the egg to gently slide out from the blunted end. The egg contents were emptied into round-bottom sterilized glass bowls and covered with petri dish covers. These were then placed into an incubator at 90% relative humidity and 3% CO2 and incubated for 3 days.
Ten microliter aliquots of this solution were dried on parafilm for 1 hour forming disks 2 mm in diameter. The dried disks containing paclitaxel were then carefully placed at the growing edge of each CAM at day 6 of incubation. Controls were obtained by placing paclitaxel-free methylcellulose disks on the CAMs over the same time course. After a 2 day exposure (day 8 of incubation) the vasculature was examined with the aid of a stereomicroscope. Liposyn II, a white opaque solution, was injected into the CAM to increase the visibility of the vascular details. The vasculature of unstained, living embryos were imaged using a Zeiss stereomicroscope which was interfaced with a video camera (Dage-MTI Inc., Michigan City, Ind.). […] Image negatives were then made on a graphics recorder (Model 3000; Matrix Instruments, Orangeburg, N.Y.).
The membranes of the 8 day-old shell-less embryo were flooded with 2% glutaraldehyde in 0.1M sodium cacodylate buffer; additional fixative was injected under the CAM. After 10 minutes in situ, the CAM was removed and placed into fresh fixative for 2 hours at room temperature. The tissue was then washed overnight in cacodylate buffer containing 6% sucrose. The areas of interest were postfixed in 1% osmium tetroxide for 1.5 hours at 4° C. The tissues were then dehydrated in a graded series of ethanols, solvent exchanged with propylene oxide, and embedded in Spurr resin. Thin sections were cut with a diamond knife, placed on copper grids, stained, and examined in a Joel 1200EX electron microscope. Similarly, […] sections were cut and stained with […] for light microscopy.
At day 11 of development, chick embryos were used for the corrosion casting technique. Mercox resin (Ted Pella, Inc., Redding, Calif.) was injected into the CAM vasculature using a 30-gauge hypodermic needle. […] After injection, the plastic was allowed to sit in situ for an hour at room temperature and then overnight in an oven at 65° C. The CAM was then placed in 50% aqueous solution of sodium hydroxide to digest all organic components.
This imaging setup was used at a magnification of 160× which permitted the direct visualization of blood cells within the capillaries; thereby blood flow in areas of interest may be easily assessed and recorded. For this study, the inhibition of angiogenesis was defined as an area of the CAM (measuring 2-6 mm in diameter) lacking a capillary network and vascular blood flow. Throughout the experiments, avascular zones were assessed on a 4 point avascular gradient (Table 11). This scale represents the degree of overall inhibition with maximal inhibition represented as a 3 on the avascular gradient scale.

collagenase (MMP-1) mRNA = test: IL-1 induced MMP-1 (collagenase) mRNA expression in chondrocytes, Northern blot
[8] = system: AP-1 transcriptional activity; test: IL-1 stimulated AP-1 transcriptional activity (AP-1 driven CAT reporter gene) in transfected chondrocytes; type: cell-based; details: IL-1 50 ng/ml, 24 hours, paclitaxel 10^−7 to 10^−5 M
Description: The results shown are representative of three independent experiments.

[9] = system: AP-1 DNA binding activity; test: IL-1 induced AP-1 DNA binding activity, gel mobility shift assay with chondrocyte extracts; type: cell-based; details: chondrocyte lysates, pretreated with paclitaxel 10^−7 to 10^−5 M for 24 hours
Description: Binding activity was assayed with a radiolabeled human AP-1 sequence probe and gel mobility shift assay. Extracts from chondrocytes untreated or treated with various amounts of paclitaxel (10^−7 to 10^−5M) followed by IL-1β (20 ng/ml) were incubated with excess probe on ice for 30 minutes, followed by non-denaturing gel electrophoresis. The “com” lane contains excess unlabeled AP-1 oligonucleotide. The results shown are representative of three independent experiments.

stromelysin (MMP-3) mRNA = test: IL-1 induced MMP-3 (stromelysin) mRNA expression in chondrocytes, Northern blot
[10] = system: collagenase and stromelysin; test: IL-1 induced collagenase and stromelysin RNA levels in chondrocytes; type: cell-based; details: pretreatment (FIG. 1D)
[11] = system: Primary human smooth muscle cells; test: Smooth muscle cell migration assay (Boyden chamber, rhPDGF-BB chemotaxis); type: cell-based; details: chemotaxis to rhPDGF-BB 10 ng/ml, 4 hours
Description: Primary human smooth muscle cells were starved of serum in smooth muscle cell basal media containing insulin and human basic fibroblast growth factor (bFGF) for 16 hours prior to the assay. For the migration assay, cells were trypsinized to remove cells from flasks, washed with migration media and diluted to a concentration of 2-2.5×10^5 cells/ml in migration media. […] A 100 μL volume of smooth muscle cells (approximately 20,000-25,000 cells) was added to the top of a Boyden chamber assembly (Chemicon QCM CHEMOTAXIS 96-well migration plate). To the bottom wells, the chemotacetic agent, recombinant human platelet derived growth factor (rhPDGF-BB) was added at a concentration of 10 ng/ml in a total volume of 150 μL. Paclitaxel was prepared in DMSO at a concentration of 10^−2 M and serially diluted 10-fold to give a range of stock concentrations (10^−8 M to 10^−2 M). […]
At the end of the 4 hour period, cells in the top chamber were discarded and the smooth muscle cells attached to the underside of the filter were detached for 30 minutes at 37° C. in Cell Detachment Solution (Chemicon). […] Relative fluorescence units from triplicate wells were averaged after subtracting background fluorescence (control chamber without chemoattractant) and average number of cells migrating was obtained from a standard curve of smooth muscle cells serially diluted from 25,000 cells/well down to 98 cells/well.

AP-1 = test: IL-1 induced AP-1 binding activity in chondrocyte lysates; type: cell-based; details: lysates from chondrocytes pretreated with the agent (FIG. 1C)
[12] = within 48 hours, depending on concentration
[13] = 10^−5 M paclitaxel, 24 hours pretreatment
[14] = chondrocytes pretreated with paclitaxel for 24 hours

CN(C)/N=N/c1[nH]cnc1C(N)=O [Dacarbazine, dacarbazine]
absorption from the GI tract [1]: poorly absorbed

CC(=O)N1CCN(c2ccc(OCC3COC(Cn4ccnc4)(c4ccc(Cl)cc4Cl)O3)cc2)CC1 (stereo not drawn) [ketoconazole]
solubility in water [2]: essentially insoluble in water
serum concentration [3]: about 3.2 micrograms

CCOC(=O)N1CCC(=C2c3ccc(Cl)cc3CCc3cccnc32)CC1 [loratadine]
effect on mast cells and eosinophil activation [4]: inhibits

Clc1ccc2c(c1)C(N1CCNCC1)=Nc1ccccc1O2 [amoxapine]
paw edema compared with vehicle treatment, in words [5]: not significantly different from the vehicle treatment
effect on NFkB and AP1 activation (NFkB and AP1): partially inhibits
benefit of the single agent (TNF-α): modest or no benefit
benefit of the single agent [6]: modest or no benefit
promotion of glucocorticoid receptor trafficking (glucocorticoid receptor): does not promote
effect on NFAT activation, translocation and transactivation (NFAT): block
potentiation of prednisolone's ability to transactivate a GRE reporter plasmid (GRE reporter plasmid): does not potentiate
effect on ERK activation (ERK): unaffected
effect on p38 and JNK activation (p38 and JNK): Inhibition

CC(=O)O[C@H]1C(=O)[C@@]2(C)[C@H]([C@H](OC(=O)c3ccccc3)[C@]3(O)C[C@H](OC(=O)[C@H](O)[C@@H](NC(=O)c4ccccc4)c4ccccc4)C(C)=C1C3(C)C)[C@]1(OC(C)=O)CO[C@@H]1C[C@@H]2O [paclitaxel]
Inhibition/n ([7]; 0.25 ug in methylcellulose (10 ul) disk): 2/11
Inhibition/n ([7]; 0.5 ug in methylcellulose (10 ul) disk): 6/11
Inhibition/n ([7]; 1 ug in methylcellulose (10 ul) disk): 6/15
Inhibition/n ([7]; 5 ug in methylcellulose (10 ul) disk): 20/27
Inhibition/n ([7]; 10 ug in methylcellulose (10 ul) disk): 16/21
Inhibition/n ([7]; 30 ug in methylcellulose (10 ul) disk): 31/31
angiogenesis in the CAM ([7]; 48 hours after application to the CAM): inhibited
avascular gradient scale, maximal avascular zone [7, 12]: 3
maximal avascular zone diameter [7, 12]: 6 mm
inhibition of collagenase mRNA expression (collagenase (MMP-1) mRNA; [13]): complete inhibition
collagenase mRNA levels, IL-1 induced (collagenase (MMP-1) mRNA; [14]): significantly reduced
concentration inhibiting collagenase expression in vitro (collagenase (MMP-1) mRNA; chondrocytes, IL-1 induced): 10^−6 M
IL-1 induced AP-1 reporter gene CAT activity [8]: decreased CAT activity in a concentration dependent manner; also recorded: reduced IL-1 induced AP-1 reporter gene CAT activity
IL-1 induced AP-1 binding activity to oligonucleotides [9]: decreased
inhibition of stromelysin mRNA expression (stromelysin (MMP-3) mRNA; [13]): complete inhibition
stromelysin mRNA levels, IL-1 induced (stromelysin (MMP-3) mRNA; [14]): significantly reduced
concentration inhibiting stromelysin expression in vitro (stromelysin (MMP-3) mRNA; chondrocytes, IL-1 induced): 10^−6 M
IL-1 induction of collagenase and stromelysin RNA levels [10]: inhibited
IC50 [11]: 0.76 nM
IL-1 induced binding activity (AP-1): decreased
